Results taken from BindingDB's records for doi:10.1016/S0960-894X(01)80190-6 (n/a, 1994).
pIC50: −log10 of the molar value.

Target: Lanosterol 14-alpha demethylase (Candida albicans) (UniProt P10613)
Assay: In vitro inhibition of Lanosterol 14-alpha demethylase (Candida albicans CY1005)

Sequence of Lanosterol 14-alpha demethylase (Candida albicans) (P10613 whole entry, looked up): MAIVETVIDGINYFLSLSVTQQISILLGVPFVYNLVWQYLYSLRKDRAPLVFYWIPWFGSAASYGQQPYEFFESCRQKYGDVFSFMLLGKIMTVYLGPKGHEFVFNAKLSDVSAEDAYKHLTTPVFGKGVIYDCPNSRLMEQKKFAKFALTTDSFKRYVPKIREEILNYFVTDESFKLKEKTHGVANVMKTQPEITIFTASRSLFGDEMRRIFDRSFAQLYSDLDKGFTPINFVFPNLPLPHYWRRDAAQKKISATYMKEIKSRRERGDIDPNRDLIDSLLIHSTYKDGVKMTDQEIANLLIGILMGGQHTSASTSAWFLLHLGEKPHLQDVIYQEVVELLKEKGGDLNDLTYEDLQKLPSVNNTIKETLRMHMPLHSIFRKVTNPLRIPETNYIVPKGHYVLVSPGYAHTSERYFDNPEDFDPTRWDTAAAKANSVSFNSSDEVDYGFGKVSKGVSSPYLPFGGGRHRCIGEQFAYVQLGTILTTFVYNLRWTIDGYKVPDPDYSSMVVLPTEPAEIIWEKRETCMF

CCCCCCC/C=C/C[C@@H]1OC[C@H](C)[C@H](OC)[C@H]1COC(=O)CN
pIC50: 6.65

CCc1ccc(CC[C@@H]2CCC(C)(C)[C@H](OC)[C@H]2Cn2ccnc2)cc1
pIC50: 7.04

CC[C@@H](C)n1ncn(-c2ccc(N3CCN(c4ccc(OC[C@H]5CO[C@](Cn6cncn6)(c6ccc(Cl)cc6Cl)O5)cc4)CC3)cc2)c1=O [ITRAZOLE]
pIC50: 7.07
